Measurements published in patent publication US20060069132A1, “Azolecarboxamide herbicides” (priority 2004, published 2006).

How the values were obtained:
soybean = assay: Test C pre-/postemergence herbicide test; type: in vivo, Glycine max
Summary of the method: (§1)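 Greenhouse-grown plants were evaluated visually 12 to 14 days after treatment, with 100 meaning complete control and 0 no effect. Application was preemergence, or postemergence at 2 to 18 cm.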

pigweed = assay: Test C pre-/postemergence herbicide test; type: in vivo, Amaranthus retroflexus
Summary of the method: as §1

yellow nutsedge = assay: Test C pre-/postemergence herbicide test; type: in vivo, Cyperus esculentus
Summary of the method: as §1

goosegrass = assay: Test C pre-/postemergence herbicide test; type: in vivo, Eleusine indica
Summary of the method: as §1

velvetleaf = assay: Test C pre-/postemergence herbicide test; type: in vivo, Abutilon theophrasti
Summary of the method: as §1

barnyardgrass = assay: Test C flooded paddy test; type: in vivo, Echinochloa crus-galli; details: for Plant response rating, Barnyardgrass: 500 g ai/ha, visual rating after 12 to 14 days
Summary of the method: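 Injury scored visually against controls on a 0 (no effect) to 100 (complete control) scale, 12 to 14 days after treatment in greenhouse. Flooded paddy plants treated at 2-leaf stage; postemergence plants at 1- to 4-leaf stage, 2 to 18 cm tall.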

large crabgrass = assay: Test C pre-/postemergence herbicide test; type: in vivo, Digitaria sanguinalis
Summary of the method: as §1

common ragweed = assay: Test C pre-/postemergence herbicide test; type: in vivo, Ambrosia elatior; design: key to Plant response rating, Ragweed: 0 = no effect, 100 = complete control
Summary of the method: as §1

ducksalad = assay: Test C flooded paddy test; type: in vivo, Heteranthera limosa; details: for Plant response rating, Ducksalad: 500 g ai/ha, visual rating after 12 to 14 days
giant foxtail = assay: Test C pre-/postemergence herbicide test; type: in vivo, Setaria faberi
Summary of the method: as §1

[1] = 62 g ai/ha, preemergence, scale 0 to 100
[2] = 250 g ai/ha, scale 0-100, preemergence
[3] = 500 g ai/ha, scale 0 to 100 (0 no effect, 100 complete control), visual, 12 to 14 days, preemergence
[4] = Postemergence, 500 g ai/ha, scale 0 to 100
[5] = Postemergence, 250 g ai/ha, scale 0 to 100, 0 no effect, 100 complete control
[6] = postemergence, 125 g ai/ha, scale 0 to 100
[7] = postemergence, 62 g ai/ha, scale 0 to 100
[8] = 125 g ai/ha, scale 0 (no effect) to 100 (complete control), visual, 12 to 14 days, preemergence
[9] = 62 g ai/ha, scale 0 to 100 (0 no effect, 100 complete control)
[10] = 125 g ai/ha, scale 0 to 100 (0 no effect, 100 complete control)
[11] = 250 g ai/ha, scale of 0 to 100, 0 is no effect, 100 is complete control
[12] = scale 0 to 100 (0 no effect, 100 complete control)
[13] = 31 g ai/ha, preemergence, scale 0 to 100
[14] = 125 g ai/ha, scale of 0 to 100, 0 is no effect, 100 is complete control

CCn1nc(C(C)(C)C)cc1C(=O)Nc1cccc(OC(F)(F)C(F)F)c1 [Compound 333]
40: Plant response rating, Soybean (soybean; [5])
70: Plant response rating, Crabgrass, Large (large crabgrass; [8])
75: Plant response rating, Foxtail, Giant (giant foxtail; [3])
80: Velvetleaf plant response rating (velvetleaf; [4])
30: Plant response rating, Soybean (soybean; [6]) | Plant response rating, Soybean (soybean; [7]) | Plant response rating, Goosegrass (goosegrass; [8]) | Plant response rating, Ragweed (common ragweed; [6])
10: Plant response rating, Goosegrass (goosegrass; [5]) | Plant response rating, Goosegrass (goosegrass; [6]) | Barnyardgrass plant response rating (barnyardgrass; [11]) | Crabgrass, Large plant response rating (large crabgrass; [4]) | Plant response rating, Foxtail, Giant (giant foxtail; [8]) | Foxtail, Giant plant response rating (giant foxtail; [4]) | Plant response rating, Foxtail, Giant (giant foxtail; [5])
0: Plant response rating, Soybean (soybean; [1]) | Plant response rating, Soybean (soybean; [2]) | Plant response rating, Soybean (soybean; [3]) | Plant response rating, Nutsedge, Yellow (yellow nutsedge; [1]) | Plant response rating, Nutsedge, Yellow (yellow nutsedge; [8]) | Plant response rating, Nutsedge, Yellow (yellow nutsedge; [2]) | Plant response rating, Nutsedge, Yellow (yellow nutsedge; [3]) | Nutsedge, Yellow plant response rating (yellow nutsedge; [4]) | Plant response rating, Nutsedge, Yellow (yellow nutsedge; [5]) | Plant response rating, Nutsedge, Yellow (yellow nutsedge; [6]) | Plant response rating, Nutsedge, Yellow (yellow nutsedge; [7]) | Plant response rating, Goosegrass (goosegrass; [1]) | Plant response rating, Velvetleaf (velvetleaf; [1]) | Barnyardgrass plant response rating (barnyardgrass; [9]) | Barnyardgrass plant response rating (barnyardgrass; [10]) | Plant response rating, Crabgrass, Large (large crabgrass; [7]) | Plant response rating, Ragweed (common ragweed; [1]) | Ducksalad plant response rating (ducksalad; 62 g ai/ha, scale 0 to 100) | Ducksalad plant response rating (ducksalad; [10]) | Ducksalad plant response rating (ducksalad; [11]) | Plant response rating, Foxtail, Giant (giant foxtail; [1])
25: Plant response rating, Ducksalad (ducksalad; [12])
45: Soybean plant response rating (soybean; [4])
85: Plant response rating, Goosegrass (goosegrass; [2])
5: Plant response rating, Goosegrass (goosegrass; [7]) | Plant response rating, Crabgrass, Large (large crabgrass; [5]) | Plant response rating, Crabgrass, Large (large crabgrass; [6]) | Plant response rating, Ragweed (common ragweed; [7]) | Plant response rating, Foxtail, Giant (giant foxtail; [6]) | Plant response rating, Foxtail, Giant (giant foxtail; [7])
15: Goosegrass plant response rating (goosegrass; [4])
65: Plant response rating, Pigweed (pigweed; [7]) | Plant response rating, Ragweed (common ragweed; [3])
55: Plant response rating, Velvetleaf (velvetleaf; [3])
20: Plant response rating, Barnyardgrass (barnyardgrass; [12]) | Plant response rating, Crabgrass, Large (large crabgrass; [1])
100: Plant response rating, Pigweed (pigweed; [1]) | Plant response rating, Pigweed (pigweed; [8]) | Plant response rating, Pigweed (pigweed; [2]) | Plant response rating, Pigweed (pigweed; [3]) | Pigweed plant response rating (pigweed; [4]) | Plant response rating, Pigweed (pigweed; [5]) | Plant response rating, Pigweed (pigweed; [6]) | Plant response rating, Goosegrass (goosegrass; [3]) | Plant response rating, Crabgrass, Large (large crabgrass; [2]) | Plant response rating, Crabgrass, Large (large crabgrass; [3])
50: Plant response rating, Velvetleaf (velvetleaf; [2]) | Plant response rating, Velvetleaf (velvetleaf; [5]) | Plant response rating, Velvetleaf (velvetleaf; [6]) | Plant response rating, Ragweed (common ragweed; [2]) | Ragweed plant response rating (common ragweed; [4]) | Plant response rating, Ragweed (common ragweed; [5]) | Plant response rating, Foxtail, Giant (giant foxtail; [2])

CCN1N=C(C(C)(C)C)CC1C(=O)Nc1cc(C(=O)N2CCCC2)ccc1F (racemic) [Compound 309]
70: Plant response rating, Ragweed (common ragweed; [2]) | Plant response rating, Foxtail, Giant (giant foxtail; [1])
90: Plant response rating, Barnyardgrass (barnyardgrass; [12]) | Ducksalad plant response rating (ducksalad; [10]) | Ducksalad plant response rating (ducksalad; [11]) | Plant response rating, Ducksalad (ducksalad; [12]) | Plant response rating, Foxtail, Giant (giant foxtail; [2])
50: Barnyardgrass plant response rating (barnyardgrass; [9]) | Plant response rating, Ragweed (common ragweed; [1])
20: Plant response rating, Soybean (soybean; [1])
80: Plant response rating, Soybean (soybean; [2]) | Plant response rating, Soybean (soybean; [3]) | Plant response rating, Pigweed (pigweed; [1]) | Plant response rating, Crabgrass, Large (large crabgrass; [8]) | Plant response rating, Foxtail, Giant (giant foxtail; [8])
30: Plant response rating, Nutsedge, Yellow (yellow nutsedge; [8])
60: Plant response rating, Nutsedge, Yellow (yellow nutsedge; [3]) | Barnyardgrass plant response rating (barnyardgrass; [10])
5: Plant response rating, Nutsedge, Yellow (yellow nutsedge; [1]) | Plant response rating, Velvetleaf (velvetleaf; [1])
75: Plant response rating, Velvetleaf (velvetleaf; [2])
45: Plant response rating, Nutsedge, Yellow (yellow nutsedge; [2])
100: Plant response rating, Pigweed (pigweed; [8]) | Plant response rating, Pigweed (pigweed; [2]) | Plant response rating, Pigweed (pigweed; [3]) | Plant response rating, Goosegrass (goosegrass; [2]) | Plant response rating, Goosegrass (goosegrass; [3]) | Plant response rating, Velvetleaf (velvetleaf; [3]) | Plant response rating, Crabgrass, Large (large crabgrass; [2]) | Plant response rating, Crabgrass, Large (large crabgrass; [3]) | Plant response rating, Ragweed (common ragweed; [3]) | Plant response rating, Foxtail, Giant (giant foxtail; [3])
85: Plant response rating, Goosegrass (goosegrass; [1]) | Plant response rating, Goosegrass (goosegrass; [8]) | Barnyardgrass plant response rating (barnyardgrass; [11]) | Ducksalad plant response rating (ducksalad; 62 g ai/ha, scale 0 to 100)

CCC(=NO)c1cccc(NC(=O)c2cc(C(C)(C)C)nn2C)c1 [Compound 118]
10: Plant response rating, Soybean (soybean; [8]) | Plant response rating, Crabgrass, Large (large crabgrass; [13]) | Plant response rating, Ragweed (common ragweed; [8]) | Plant response rating, Foxtail, Giant (giant foxtail; [8])
50: Plant response rating, Barnyardgrass (barnyardgrass; [12]) | Ducksalad plant response rating (ducksalad; [14]) | Ducksalad plant response rating (ducksalad; [11]) | Plant response rating, Ducksalad (ducksalad; [12])
40: Plant response rating, Velvetleaf (velvetleaf; [8])
80: Plant response rating, Goosegrass (goosegrass; [8])
90: Plant response rating, Pigweed (pigweed; [8])
20: Plant response rating, Pigweed (pigweed; [13]) | Plant response rating, Goosegrass (goosegrass; [13]) | Plant response rating (0 = no effect, 100 = complete control), Goosegrass (goosegrass; 62 g ai/ha, preemergence) | Barnyardgrass plant response rating (barnyardgrass; [14]) | Barnyardgrass plant response rating (barnyardgrass; [11])
0: Plant response rating, Soybean (soybean; [13]) | Plant response rating (0 = no effect, 100 = complete control), Soybean (soybean; 62 g ai/ha, preemergence) | Plant response rating, Nutsedge, Yellow (yellow nutsedge; 16 g ai/ha, scale 0 to 100, last section of Table C, preemergence) | Plant response rating, Nutsedge, Yellow (yellow nutsedge; [13]) | Plant response rating (0 = no effect, 100 = complete control), Nutsedge, Yellow (yellow nutsedge; 62 g ai/ha, preemergence) | Plant response rating, Nutsedge, Yellow (yellow nutsedge; [8]) | Plant response rating, Velvetleaf (velvetleaf; [13]) | Barnyardgrass plant response rating (barnyardgrass; [9]) | Plant response rating, Ragweed (common ragweed; [13]) | Plant response rating (0 = no effect, 100 = complete control), Ragweed (common ragweed; 62 g ai/ha, preemergence) | Ducksalad plant response rating (ducksalad; [9]) | Plant response rating, Foxtail, Giant (giant foxtail; [13]) | Plant response rating (0 = no effect, 100 = complete control), Foxtail, Giant (giant foxtail; 62 g ai/ha, preemergence)
70: Plant response rating (0 = no effect, 100 = complete control), Pigweed (pigweed; 62 g ai/ha, preemergence) | Plant response rating (0 = no effect, 100 = complete control), Crabgrass, Large (large crabgrass; 62 g ai/ha, preemergence)
100: Plant response rating, Crabgrass, Large (large crabgrass; [8])
